For experiment [1], the target named is T1, Tyrosine-protein kinase ZAP-70 (Homo sapiens) (UniProt P43403).
T1 sequence (whole entry): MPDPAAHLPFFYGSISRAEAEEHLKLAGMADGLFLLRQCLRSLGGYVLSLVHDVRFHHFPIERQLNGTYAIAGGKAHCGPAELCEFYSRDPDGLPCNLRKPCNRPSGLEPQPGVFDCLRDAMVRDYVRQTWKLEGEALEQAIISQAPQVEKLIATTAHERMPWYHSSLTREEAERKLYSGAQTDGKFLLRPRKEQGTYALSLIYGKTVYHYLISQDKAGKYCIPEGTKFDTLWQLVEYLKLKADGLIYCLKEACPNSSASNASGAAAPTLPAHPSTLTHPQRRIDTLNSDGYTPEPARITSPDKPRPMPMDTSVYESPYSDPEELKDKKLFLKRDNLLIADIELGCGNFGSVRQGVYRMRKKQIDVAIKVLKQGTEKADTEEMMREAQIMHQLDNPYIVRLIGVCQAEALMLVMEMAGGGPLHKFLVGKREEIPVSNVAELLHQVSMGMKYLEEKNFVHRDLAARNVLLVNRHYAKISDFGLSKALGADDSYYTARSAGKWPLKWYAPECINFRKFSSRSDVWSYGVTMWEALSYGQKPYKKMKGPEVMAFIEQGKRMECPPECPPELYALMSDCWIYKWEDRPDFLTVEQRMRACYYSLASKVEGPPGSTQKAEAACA
The experiment in a line: Selectivity interaction (Ambit KINOMEscan and KiNATiv profiling in Jurkat cells) EUB0000090b ZAP70. It is filed as cell-based. Particulars: at 1 µM.

Experiment [2] has as its target Death-associated protein kinase 3 (Homo sapiens) (UniProt O43293). Kind of experiment: Selectivity interaction (Ambit KINOMEscan and KiNATiv profiling in Jurkat cells) EUB0000090b DAPK3. Type of experiment: cell-based. Conditions: at 1 µM.
Experiment [3] deals with Ribosomal protein S6 kinase alpha-1 (Homo sapiens, UniProt Q15418). Kind of experiment: Selectivity interaction (ActivX KiNativ screen (kinase selectivity in THP-1 cell lysates)) EUB0000639a RPS6KA1. Type of experiment: subcellular. Conditions: lysate, at 0.2 µM.
Chain of Ribosomal protein S6 kinase alpha-1 (Q15418 whole entry): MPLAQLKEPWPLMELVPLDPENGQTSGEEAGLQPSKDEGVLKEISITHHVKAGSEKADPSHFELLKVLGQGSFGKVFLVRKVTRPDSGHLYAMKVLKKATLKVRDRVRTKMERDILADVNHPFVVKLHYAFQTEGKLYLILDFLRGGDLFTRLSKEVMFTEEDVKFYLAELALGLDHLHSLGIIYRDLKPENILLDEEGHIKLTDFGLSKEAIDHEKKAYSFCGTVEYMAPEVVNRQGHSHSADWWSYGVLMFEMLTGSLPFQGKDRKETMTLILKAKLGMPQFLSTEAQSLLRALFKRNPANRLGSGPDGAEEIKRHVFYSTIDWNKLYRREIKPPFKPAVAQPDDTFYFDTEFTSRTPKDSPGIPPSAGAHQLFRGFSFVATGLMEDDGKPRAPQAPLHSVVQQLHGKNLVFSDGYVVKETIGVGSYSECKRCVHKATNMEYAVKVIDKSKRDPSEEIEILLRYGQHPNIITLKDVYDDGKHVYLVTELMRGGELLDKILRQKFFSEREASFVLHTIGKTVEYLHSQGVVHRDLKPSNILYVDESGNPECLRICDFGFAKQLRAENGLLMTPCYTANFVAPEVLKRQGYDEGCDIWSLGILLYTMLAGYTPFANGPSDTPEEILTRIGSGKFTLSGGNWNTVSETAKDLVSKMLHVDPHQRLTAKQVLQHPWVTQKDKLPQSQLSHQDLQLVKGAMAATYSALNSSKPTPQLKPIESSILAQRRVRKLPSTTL
Experiment [4] deals with T2, Serine/threonine-protein kinase tousled-like 1 (Homo sapiens) (UniProt Q9UKI8).
T2 sequence (whole entry): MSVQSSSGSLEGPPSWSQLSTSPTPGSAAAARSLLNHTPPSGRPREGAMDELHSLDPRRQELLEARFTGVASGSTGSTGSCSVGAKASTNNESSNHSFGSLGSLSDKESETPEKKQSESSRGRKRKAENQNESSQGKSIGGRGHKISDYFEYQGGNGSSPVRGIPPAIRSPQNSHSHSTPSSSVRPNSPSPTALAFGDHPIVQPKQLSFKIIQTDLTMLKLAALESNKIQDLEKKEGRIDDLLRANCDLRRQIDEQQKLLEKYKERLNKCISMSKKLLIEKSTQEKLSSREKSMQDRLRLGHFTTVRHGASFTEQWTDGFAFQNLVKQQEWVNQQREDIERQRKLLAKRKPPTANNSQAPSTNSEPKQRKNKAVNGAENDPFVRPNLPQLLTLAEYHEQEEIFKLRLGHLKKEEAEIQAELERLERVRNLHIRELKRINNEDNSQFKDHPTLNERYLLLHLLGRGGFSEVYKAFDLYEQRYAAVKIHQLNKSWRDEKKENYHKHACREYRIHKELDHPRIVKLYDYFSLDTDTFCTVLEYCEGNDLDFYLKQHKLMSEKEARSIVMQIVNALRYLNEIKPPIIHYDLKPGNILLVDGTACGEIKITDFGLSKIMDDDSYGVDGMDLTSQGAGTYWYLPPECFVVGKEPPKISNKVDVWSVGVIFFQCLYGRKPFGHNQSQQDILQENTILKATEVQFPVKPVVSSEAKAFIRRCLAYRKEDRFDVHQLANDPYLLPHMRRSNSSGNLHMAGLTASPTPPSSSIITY
Particulars: at 10 µM.

The target of experiment [5] is T3, Serine/threonine-protein kinase LATS2 (Homo sapiens) (UniProt Q9NRM7).
T3 sequence (whole entry): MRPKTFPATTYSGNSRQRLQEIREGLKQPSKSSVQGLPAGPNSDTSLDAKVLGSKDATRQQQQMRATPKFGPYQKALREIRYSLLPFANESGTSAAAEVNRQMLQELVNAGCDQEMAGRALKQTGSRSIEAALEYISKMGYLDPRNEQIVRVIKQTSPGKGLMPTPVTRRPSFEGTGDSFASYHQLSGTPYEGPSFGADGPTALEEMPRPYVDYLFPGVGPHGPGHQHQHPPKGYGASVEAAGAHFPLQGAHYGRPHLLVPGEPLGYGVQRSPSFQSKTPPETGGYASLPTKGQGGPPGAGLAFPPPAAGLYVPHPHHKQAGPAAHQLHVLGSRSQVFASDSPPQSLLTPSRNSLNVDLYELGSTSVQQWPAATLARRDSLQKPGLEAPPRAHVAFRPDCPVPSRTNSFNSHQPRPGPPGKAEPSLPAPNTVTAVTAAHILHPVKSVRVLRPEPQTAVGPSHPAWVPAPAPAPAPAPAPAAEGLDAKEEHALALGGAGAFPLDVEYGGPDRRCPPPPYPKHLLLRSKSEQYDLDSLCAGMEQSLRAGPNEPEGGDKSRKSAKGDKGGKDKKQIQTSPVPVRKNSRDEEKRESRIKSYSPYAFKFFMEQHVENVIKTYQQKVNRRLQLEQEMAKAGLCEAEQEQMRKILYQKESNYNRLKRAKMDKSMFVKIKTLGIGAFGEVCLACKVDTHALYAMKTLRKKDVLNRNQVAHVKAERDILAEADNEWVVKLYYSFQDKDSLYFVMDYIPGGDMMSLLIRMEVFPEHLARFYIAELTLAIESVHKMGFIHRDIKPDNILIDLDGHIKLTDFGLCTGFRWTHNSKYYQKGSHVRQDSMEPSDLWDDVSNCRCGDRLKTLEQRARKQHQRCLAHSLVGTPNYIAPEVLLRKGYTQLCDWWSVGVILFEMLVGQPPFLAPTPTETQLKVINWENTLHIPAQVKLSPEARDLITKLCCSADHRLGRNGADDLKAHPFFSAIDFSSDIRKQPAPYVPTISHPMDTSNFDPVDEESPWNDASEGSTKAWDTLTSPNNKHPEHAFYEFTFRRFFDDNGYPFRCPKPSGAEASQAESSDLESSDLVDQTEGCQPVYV
Kind of experiment: Selectivity interaction (KinomeScan (DiscoverX)) EUB0000045b LATS2.

Chain of Death-associated protein kinase 3 (Homo sapiens) (O43293 whole entry, looked up): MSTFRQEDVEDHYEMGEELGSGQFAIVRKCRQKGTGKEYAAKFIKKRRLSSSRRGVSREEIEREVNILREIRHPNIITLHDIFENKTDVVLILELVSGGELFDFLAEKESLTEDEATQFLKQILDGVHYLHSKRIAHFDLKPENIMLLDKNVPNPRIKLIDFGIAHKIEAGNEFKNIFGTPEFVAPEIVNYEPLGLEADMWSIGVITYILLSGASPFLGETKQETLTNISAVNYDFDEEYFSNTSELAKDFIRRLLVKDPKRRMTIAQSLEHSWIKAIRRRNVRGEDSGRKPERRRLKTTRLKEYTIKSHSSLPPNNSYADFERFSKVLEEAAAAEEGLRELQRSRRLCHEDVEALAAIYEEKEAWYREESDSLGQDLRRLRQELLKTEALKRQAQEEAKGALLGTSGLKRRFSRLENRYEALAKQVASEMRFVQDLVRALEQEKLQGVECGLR

Regarding `CN(C)C/C=C/C(=O)Nc1ccc(C(=O)N2CCCC(Nc3ncc(Cl)c(-c4c[nH]c5ccccc45)n3)C2)cc1` (stereo unspecified), the % of control came to 86% in experiment [1] and 100% in experiment [2]. In experiment [3], `CC[C@@H]1[C@H](F)C(=O)N[C@@H]1COc1nccc2cc(C(N)=O)c(OC)cc12` [ZIMLOVISERTIB] yielded a % of inhibition of 10.3%. In experiment [4], `CCN(CC)CCCCNc1ncc2cc(-c3cc(OC)cc(OC)c3)c(NC(=O)NC(C)(C)C)nc2n1` registered a % of control of 100%. In the case of `C=CC(=O)Nc1cc(-n2c(=O)ccc3cnc4ccc(-c5ccc(NS(C)(=O)=O)cc5)cc4c32)ccc1C`, the values for the % of control in experiment [5] (at 1 µM) and in experiment [5] (at 10 µM) were 100% and 81%, respectively.

For the origin of these results see ChEMBL document CHEMBL5465560, “Selectivity Literature for EUbOPEN Chemogenomic Library” (2024).
